The values below come from ChEMBL document CHEMBL1128401, “Structure-activity relationships in the 8-amino-6,7,8,9-tetrahydro-3H-benz[e]indole ring system. 1. Effects of substituents in the aromatic system on serotonin and dopamine receptor subtypes” (J Med Chem, 1995).

Active and inactive are the calls of the source. The calls are words filed in the database; no cut-off is given here.

Assay [1] deals with Rattus norvegicus. Kind of assay: Compound was tested in vivo for 5-HTP accumulation in corpus striatum against reserpine-pretreated rats;I= inactive at the highest dose tested (50). It counts as functional, organism-based.
Assay [2] deals with Rattus norvegicus. Kind of assay: Compound was tested in vivo for DOPA accumulation in corpus striatum against reserpine-pretreated rats;P= significant partial reduction only at the highest dose tested (50). It counts as functional, organism-based.
Assay [3] concerns Rattus norvegicus. Kind of assay: Compound was tested in vivo for 5-HTP accumulation in hemispheres (cortex) against reserpine-pretreated rats;I= inactive at the highest dose tested (50). The format is functional, organism-based.
The subject of assay [4] is Rattus norvegicus. Kind of assay: Compound was tested in vivo for 5-HTP accumulation in limbic system against reserpine-pretreated rats;P= significant partial reduction only at the highest dose tested (50). The format is functional, organism-based.
Assay [5] has as its system Rattus norvegicus. The assay is described as follows: The Compound was tested in vivo for DOPA accumulation in hemispheres (cortex) against reserpine-pretreated rats;I= inactive at the highest dose tested (50). The format is functional, organism-based.
Assay [6] has as its system Rattus norvegicus. The assay is described as follows: The Compound was tested in vivo for DOPA accumulation in limbic system against reserpine-pretreated rats; P=significant partial reduction only at the highest dose tested (50). The format is functional, organism-based.
Assay [7] concerns Rattus norvegicus. The assay is described as follows: In vivo for 5-HTP accumulation in corpus striatum against reserpine-pretreated rats. It counts as functional.
Assay [8] concerns Rattus norvegicus. The assay is described as follows: In vivo for DOPA accumulation in limbic system against reserpine-pretreated rats. It counts as functional.
Assay [9] deals with 5-hydroxytryptamine receptor 1B (Homo sapiens, UniProt P28222). The assay is described as follows: Binding affinity against 5-hydroxytryptamine 1D receptor beta expressed in CHO-K1 cells, using [3H]5-HT as the radioligand. The format is cell-based.
Chain of 5-hydroxytryptamine receptor 1B (P28222 whole entry): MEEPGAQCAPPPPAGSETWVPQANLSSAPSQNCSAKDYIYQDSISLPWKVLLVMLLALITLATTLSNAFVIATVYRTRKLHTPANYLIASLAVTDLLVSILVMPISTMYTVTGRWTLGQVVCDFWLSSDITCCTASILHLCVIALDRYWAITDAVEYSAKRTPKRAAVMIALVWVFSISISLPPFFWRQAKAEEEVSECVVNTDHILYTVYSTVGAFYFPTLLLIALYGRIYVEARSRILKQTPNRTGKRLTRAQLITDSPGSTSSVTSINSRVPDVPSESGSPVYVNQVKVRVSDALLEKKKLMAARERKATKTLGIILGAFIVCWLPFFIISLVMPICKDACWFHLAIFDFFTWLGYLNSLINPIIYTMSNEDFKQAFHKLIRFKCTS
Assay [10] has as its system Rattus norvegicus. Kind of assay: In vivo for DOPA accumulation in corpus striatum against reserpine-pretreated rats. The format is functional.
Assay [11] deals with T1, D(2) dopamine receptor (Rattus norvegicus, UniProt P61169). Kind of assay: Binding affinity against Dopamine receptor D2 expressed in CHO-K1 cells, using [3H]U-86170 as the radioligand. It counts as cell-based.
T1 sequence (P61169 whole entry): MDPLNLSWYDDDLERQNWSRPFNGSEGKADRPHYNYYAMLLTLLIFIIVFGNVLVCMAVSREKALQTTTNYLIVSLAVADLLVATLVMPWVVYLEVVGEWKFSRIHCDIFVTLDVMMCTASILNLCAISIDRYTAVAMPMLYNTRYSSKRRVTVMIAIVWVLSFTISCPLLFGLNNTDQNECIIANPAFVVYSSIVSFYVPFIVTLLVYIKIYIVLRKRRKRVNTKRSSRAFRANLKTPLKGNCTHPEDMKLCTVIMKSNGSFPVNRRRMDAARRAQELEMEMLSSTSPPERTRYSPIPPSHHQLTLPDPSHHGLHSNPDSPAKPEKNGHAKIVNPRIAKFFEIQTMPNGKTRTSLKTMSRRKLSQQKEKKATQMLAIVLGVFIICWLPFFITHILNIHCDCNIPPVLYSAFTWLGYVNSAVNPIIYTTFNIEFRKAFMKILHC
Assay [12] concerns Rattus norvegicus. Kind of assay: In vivo for 5-HTP accumulation in limbic system against reserpine-pretreated rats. The format is functional.
For assay [13], the target named is 5-hydroxytryptamine receptor 1D (Homo sapiens, UniProt P28221). The assay is described as follows: Binding affinity against 5-hydroxytryptamine 1D receptor alpha expressed in CHO-K1 cells, using [3H]-5-HT as the radioligand. The format is cell-based. To be noted: read-out: Ki.
Chain of 5-hydroxytryptamine receptor 1D (P28221 whole entry): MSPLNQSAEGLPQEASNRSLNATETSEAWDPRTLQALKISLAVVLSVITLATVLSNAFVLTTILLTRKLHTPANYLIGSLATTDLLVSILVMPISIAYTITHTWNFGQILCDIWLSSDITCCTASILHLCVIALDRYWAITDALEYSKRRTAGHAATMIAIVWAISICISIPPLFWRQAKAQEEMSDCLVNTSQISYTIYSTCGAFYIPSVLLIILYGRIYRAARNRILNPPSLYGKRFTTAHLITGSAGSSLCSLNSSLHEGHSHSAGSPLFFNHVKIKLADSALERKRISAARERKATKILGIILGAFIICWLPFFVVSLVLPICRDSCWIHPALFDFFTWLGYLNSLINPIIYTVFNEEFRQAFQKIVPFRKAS
The subject of assay [14] is Rattus norvegicus. The assay is described as follows: In vivo for 5-HTP accumulation in hemispheres (cortex) against reserpine-pretreated rats. It counts as functional.
The subject of assay [15] is Rattus norvegicus. The assay is described as follows: The Compound was tested in vivo for DOPA accumulation in hemispheres (cortex) against reserpine-pretreated rats; Iinactive at the highest dose tested (12.5). It counts as functional, organism-based.
Assay [16] addresses T2, D(3) dopamine receptor (Rattus norvegicus, UniProt P19020). The assay is described as follows: Binding affinity against Dopamine receptor D3 expressed in CHO-K1 cells, using [3H]spiperone as the radioligand. The format is cell-based.
Assay [17] concerns Rattus norvegicus. Kind of assay: Compound was tested in vivo for 5-HTP accumulation in hemispheres (cortex) against reserpine-pretreated rats; P=significant partial reduction only at the highest dose tested (12.5). The format is functional, organism-based.
The subject of assay [18] is Rattus norvegicus. Kind of assay: The Compound was tested in vivo for DOPA accumulation in hemispheres (cortex) against reserpine-pretreated rats;I= inactive at the highest dose tested (25). The format is functional, organism-based.
For assay [19], the target named is T3, 5-hydroxytryptamine receptor 1A (Rattus norvegicus, UniProt P19327).
T3 sequence (P19327 whole entry): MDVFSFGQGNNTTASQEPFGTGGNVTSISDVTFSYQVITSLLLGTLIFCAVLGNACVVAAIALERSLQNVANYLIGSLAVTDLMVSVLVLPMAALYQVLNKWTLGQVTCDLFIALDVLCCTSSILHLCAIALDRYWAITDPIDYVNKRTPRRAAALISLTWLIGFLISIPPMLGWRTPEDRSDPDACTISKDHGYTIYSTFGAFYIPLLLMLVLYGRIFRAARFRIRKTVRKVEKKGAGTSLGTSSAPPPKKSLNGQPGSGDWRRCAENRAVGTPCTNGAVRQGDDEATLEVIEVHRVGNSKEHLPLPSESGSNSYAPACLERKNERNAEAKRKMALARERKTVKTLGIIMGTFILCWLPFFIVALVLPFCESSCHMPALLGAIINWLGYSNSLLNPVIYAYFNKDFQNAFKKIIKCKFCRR
Kind of assay: Binding affinity against 5-hydroxytryptamine 1A receptor from CHO-K1 cells, using [3H]8-OH-DPAT as the radioligand. It counts as cell-based.

Assay [20] deals with Rattus norvegicus. Kind of assay: Compound was tested in vivo for 5-HTP accumulation in limbic system against reserpine-pretreated rats;I=inactive at the highest dose tested (50). The format is functional, organism-based.
For assay [21], the system named is Rattus norvegicus. Kind of assay: Compound was tested in vivo for DOPA accumulation in corpus striatum against reserpine-pretreated rats; P=significant partial reduction only at the highest dose tested (50). It counts as functional, organism-based.
The test system of assay [22] is Rattus norvegicus. The assay is described as follows: The Compound was tested in vivo for DOPA accumulation in limbic system against reserpine-pretreated rats; P=significant partial reduction only at the highest dose tested (40). It counts as functional, organism-based.
In assay [23] the test system is Rattus norvegicus. The assay is described as follows: The Compound was tested in vivo for DOPA accumulation in hemispheres (cortex) against reserpine-pretreated rats;I= inactive at the highest dose (40). It counts as functional, organism-based.
Assay [24] concerns Rattus norvegicus. The assay is described as follows: Compound was tested in vivo for 5-HTP accumulation in hemispheres (cortex) against reserpine-pretreated rats; significant partial reduction only at the highest dose tested (40). The format is functional, organism-based.
The target of assay [25] is T2, D(3) dopamine receptor. The assay is described as follows: Binding affinity against Dopamine receptor D3 from CHO-K1 cells, using [3H]spiperone as the radioligand. The format is cell-based. To be noted: read-out: Ki.
For assay [26], the system named is Rattus norvegicus. The assay is described as follows: Compound was tested in vivo for DOPA accumulation in corpus striatum against reserpine-pretreated rats;P= significant partial reduction only at the highest dose tested (40). It counts as functional, organism-based.
Assay [27] addresses T1, D(2) dopamine receptor. The assay is described as follows: Binding affinity against Dopamine receptor D2 from CHO-K1 cells, using [3H]U-86,170 as the radioligand. It counts as cell-based.

T2 sequence (P19020 whole entry): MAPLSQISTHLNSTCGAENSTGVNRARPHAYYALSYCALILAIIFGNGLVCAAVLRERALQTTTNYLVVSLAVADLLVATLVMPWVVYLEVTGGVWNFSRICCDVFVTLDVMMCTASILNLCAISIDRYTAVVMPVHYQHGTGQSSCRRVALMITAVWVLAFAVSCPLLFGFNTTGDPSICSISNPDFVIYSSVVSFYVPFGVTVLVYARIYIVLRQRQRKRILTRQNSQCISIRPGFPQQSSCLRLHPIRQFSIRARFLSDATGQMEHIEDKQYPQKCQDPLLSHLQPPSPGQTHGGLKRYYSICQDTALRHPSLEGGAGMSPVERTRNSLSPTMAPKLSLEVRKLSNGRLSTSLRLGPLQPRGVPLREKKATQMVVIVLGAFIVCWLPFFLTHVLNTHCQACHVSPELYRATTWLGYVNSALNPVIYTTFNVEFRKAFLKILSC

For the molecule `CCCN(CCC)C1CCc2ccc3cc[nH]c3c2C1` (centres undefined), the ED50 result in assay [1], in assay [3] and in [5] was “inactive” in each case. The median effective dose (ED50) result in assay [2], in assay [4] and in [6] was “Weak activity” throughout.
Consider `CCCN(CCC)C1CCc2ccc3[nH]ccc3c2C1` (centres undefined), for which the ED50 (commonly the dose that gives a 50% effect, or the effect in half of the subjects) in assay [7] worked out at 0.076 µmol/kg; in [8] it was 0.15 µmol/kg; in assay [10] it was 0.3 µmol/kg; in assay [12], 0.096 µmol/kg; in assay [14], 0.17 µmol/kg. The Ki (as a rule, the dissociation constant of the complex between target and ligand, obtained from inhibition or displacement) amounted to 349 nM in assay [9] (read-out: Ki), 15 nM in [11], 40 nM in assay [13] and 37 nM in assay [16]. Also, the ED50 result in assay [15] is “inactive”.
As for `CCCN(CCC)C1CCc2ccc3[nH]cc(SC)c3c2C1` (centres undefined), the ED50 is 10.2 µmol/kg in assay [7]; “Weak activity” in assay [17]; 7.11 µmol/kg in assay [8]; 5.23 µmol/kg in assay [10]; 10 µmol/kg in assay [12]. Also, the inhibition constant Ki entry in assay [9] (cho-k1) is “Not Active”; in assay [11], 33 nM; in [13], 18 nM; in [19], 13 nM; in assay [16] it was 55 nM. For the same molecule, the ED50 entry in assay [18] was “inactive”.
Regarding `CCCN(CCC)C1CCc2ccc3c(c2C1)N(C=O)CC3` (centres undefined), the ED50 result in [1], in assay [3], in [5] and in [20] was “inactive” throughout. Besides, the ED50 entry in [6] and in assay [21] was “Weak activity” in each case.
Take `CCCN(CCC)C1CCc2cc(F)c3[nH]cc(C(=O)CC)c3c2C1` (centres undefined): the ED50 entry in [22] was “Weak activity”; in [7], 3.94 µmol/kg; in assay [12], 6.34 µmol/kg; in assay [26] it was “Weak activity”. Further, in assay [23], the ED50 result is “inactive”. Further, the inhibitory constant (Ki) entry in [9] (cho-k1) was “Not Active”; in assay [13], 36 nM; in assay [25], 542 nM; in assay [27], 377 nM; in [19], 7.1 nM. The ED50 result in assay [24] is “Active”.
